# Experimental data published in ChEMBL document CHEMBL1152382, “Synthesis of novel quinoxaline derivatives and its cytotoxic activities” (Bioorg Med Chem Lett, 2009).
# Assay: Cytotoxicity against human HeLaS3 cells after 48 hrs by MTT assay
# Format: functional, cell-based
# Conditions: HeLa S3, 48 h
row,SMILES,IC50
1,CC1(C)Nc2ccccc2NC1=O,> 30 µM
2,O=C1Nc2cccnc2N2CCCCC12 (stereo not given),> 30 µM
3,Cc1cnc2c(c1)N1CCCCC1C(=O)N2 (stereo not given),> 30 µM
4,N#Cc1ccc2c(c1)N1CCCCC1C(=O)N2 (stereo not given),7.6 µM
5,O=C1Nc2ccccc2NC1Cc1ccccc1 (stereo not given),> 30 µM
6,O=C1Nc2cc(OC(F)(F)F)ccc2N2CCCCC12 (stereo not given),> 30 µM
7,CC(C)(C)C1Nc2ccccc2NC1=O (stereo not given),> 30 µM
8,CCC(C)C1Nc2cc(Cl)ccc2NC1=O (stereo not given),17.2 µM
9,O=C1Nc2cc([N+](=O)[O-])ccc2N2CCCCC12 (stereo not given),> 30 µM
10,Cc1ccc2c(c1)N1CCCCC1C(=O)N2 (stereo not given),18.1 µM
11,CC(C)C1Nc2ccccc2NC1=O (stereo not given),4.85 µM
12,O=C1Nc2ccccc2N2CCCC12 (stereo not given),> 30 µM
13,O=C1Nc2ccc(Cl)cc2N2CCCCC12 (stereo not given),4.96 µM
14,O=C1Nc2ccccc2NC12CCCCC2,> 30 µM
15,O=C1Nc2ccccc2N2Cc3ccccc3CC12 (stereo not given),> 30 µM
